In experiment [1] the target is T1, Prothrombin (Homo sapiens, UniProt P00734). Put plainly: Binding affinity for Coagulation factor II relative to compound 1.
The target of experiment [2] is T2, Coagulation factor X (Homo sapiens, UniProt P00742). Put plainly: Binding affinity for Coagulation factor X with respect to compound 1.
Experiment [3] addresses Coagulation factor VII/tissue factor (Homo sapiens, UniProt P08709). The experiment can be described thus: Binding affinity for factor VIIa/TF. Type of experiment: protein-complex assay.
In experiment [4] the target is T3, Plasminogen (Homo sapiens, UniProt P00747). Put plainly: Relative affinity for Plasmin compared to compound 1.
Experiment [5] deals with T4, Urokinase-type plasminogen activator (Homo sapiens, UniProt P00749). Put plainly: Relative binding affinity for urokinase-type plasminogen activator.
Experiment [6] concerns the target T5, Serine protease 1 (Homo sapiens, UniProt P07477). The experiment can be described thus: Relative binding affinity towards Trypsin.
Experiment [7] can be described thus: (§1) In vitro anticoagulant activity in human plasma to double the prothrombin time (2x PT). In kind it is functional.
Experiment [8] concerns the target T1, Prothrombin. The experiment can be described thus: Binding affinity towards Coagulation factor II.
Experiment [9] addresses T2, Coagulation factor X. The experiment can be described thus: Binding affinity towards Coagulation factor X.
Experiment [10] concerns the target T3, Plasminogen. The experiment can be described thus: Binding affinity towards Plasmin.
The target in experiment [11] is T4, Urokinase-type plasminogen activator. The experiment can be described thus: Binding affinity towards urokinase-type plasminogen activator (microPa).
For experiment [12], the target named is T5, Serine protease 1. Put plainly: Binding affinity towards Trypsin.
The species named for experiment [13] is Homo sapiens. The description is as §1. Type of experiment: functional.
For experiment [14], the target named is T1, Prothrombin. Put plainly: Binding affinity towards Thrombin with respect to compound 1.
Experiment [15] has as its target T2, Coagulation factor X. Put plainly: Binding affinity towards coagulation factor X with respect to compound 1.
The target in the next experiment is T6, Coagulation factor VII (Homo sapiens, UniProt P08709).
T6 sequence (P08709 whole entry): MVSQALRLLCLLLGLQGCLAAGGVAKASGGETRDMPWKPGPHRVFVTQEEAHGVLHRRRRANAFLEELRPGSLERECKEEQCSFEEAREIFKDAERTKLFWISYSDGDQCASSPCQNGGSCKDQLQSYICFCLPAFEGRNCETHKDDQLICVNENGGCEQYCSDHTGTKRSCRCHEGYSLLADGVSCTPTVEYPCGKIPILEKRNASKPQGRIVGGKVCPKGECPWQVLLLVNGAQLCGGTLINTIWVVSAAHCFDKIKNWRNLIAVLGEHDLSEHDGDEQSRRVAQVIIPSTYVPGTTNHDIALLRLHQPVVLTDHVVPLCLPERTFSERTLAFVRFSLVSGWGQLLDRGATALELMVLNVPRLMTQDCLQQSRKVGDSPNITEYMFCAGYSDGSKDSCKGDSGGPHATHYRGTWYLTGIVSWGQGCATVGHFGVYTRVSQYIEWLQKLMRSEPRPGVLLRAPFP
Put plainly: Binding affinity towards factor VIIa/TF was determined.

For experiment [16], the species on record is Homo sapiens. The experiment can be described thus: In vitro anticoagulant activity in human plasma to double the prothrombin time (2xP T); Not active. In kind it is functional, cell-free.

The source made the active and inactive calls. The rule behind the calls is not given here.

T2 sequence (P00742 41-179 limits assumed): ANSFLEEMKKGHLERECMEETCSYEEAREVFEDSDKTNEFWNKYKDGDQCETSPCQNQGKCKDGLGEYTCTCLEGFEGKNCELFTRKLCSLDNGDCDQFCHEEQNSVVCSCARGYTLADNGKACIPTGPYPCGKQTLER
T2 sequence (P00742 235-488 limits assumed): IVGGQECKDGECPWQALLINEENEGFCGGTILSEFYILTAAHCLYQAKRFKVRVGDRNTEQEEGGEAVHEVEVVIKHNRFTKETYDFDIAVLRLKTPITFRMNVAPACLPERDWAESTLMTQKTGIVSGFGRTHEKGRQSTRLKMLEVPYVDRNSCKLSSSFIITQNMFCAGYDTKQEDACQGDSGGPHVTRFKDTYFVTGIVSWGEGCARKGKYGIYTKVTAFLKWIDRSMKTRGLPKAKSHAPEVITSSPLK
Sequence of Coagulation factor VII/tissue factor (P13726 33-295 partner limits assumed, one chain of several): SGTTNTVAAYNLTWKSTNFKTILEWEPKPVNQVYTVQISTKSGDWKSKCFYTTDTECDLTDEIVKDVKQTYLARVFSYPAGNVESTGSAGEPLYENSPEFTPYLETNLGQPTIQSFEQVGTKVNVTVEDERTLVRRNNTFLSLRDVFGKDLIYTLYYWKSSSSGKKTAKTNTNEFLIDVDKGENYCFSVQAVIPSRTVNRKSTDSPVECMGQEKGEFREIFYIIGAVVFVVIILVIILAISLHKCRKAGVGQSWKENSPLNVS
T3 sequence (P00747 97-580 limits assumed): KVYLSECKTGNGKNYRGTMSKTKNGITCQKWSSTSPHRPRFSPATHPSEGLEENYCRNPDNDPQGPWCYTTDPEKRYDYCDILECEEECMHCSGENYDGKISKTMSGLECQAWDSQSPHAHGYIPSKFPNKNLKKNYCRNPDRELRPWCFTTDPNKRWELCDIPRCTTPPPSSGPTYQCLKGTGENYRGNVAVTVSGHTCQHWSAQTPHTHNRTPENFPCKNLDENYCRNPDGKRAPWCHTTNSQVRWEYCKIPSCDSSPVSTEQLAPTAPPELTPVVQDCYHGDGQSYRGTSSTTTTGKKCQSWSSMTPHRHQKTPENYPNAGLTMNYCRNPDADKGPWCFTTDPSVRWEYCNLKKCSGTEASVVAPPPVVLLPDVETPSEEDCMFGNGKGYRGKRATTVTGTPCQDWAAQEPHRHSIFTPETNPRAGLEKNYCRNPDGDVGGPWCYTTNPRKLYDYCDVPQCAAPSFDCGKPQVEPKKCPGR
T3 sequence (P00747 581-810 limits assumed): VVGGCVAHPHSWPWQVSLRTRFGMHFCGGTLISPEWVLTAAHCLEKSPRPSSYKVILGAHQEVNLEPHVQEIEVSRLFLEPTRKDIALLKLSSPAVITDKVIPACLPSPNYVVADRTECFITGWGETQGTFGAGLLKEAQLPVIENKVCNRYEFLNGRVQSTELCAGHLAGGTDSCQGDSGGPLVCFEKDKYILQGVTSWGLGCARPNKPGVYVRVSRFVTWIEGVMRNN
T5 sequence (P07477 whole entry): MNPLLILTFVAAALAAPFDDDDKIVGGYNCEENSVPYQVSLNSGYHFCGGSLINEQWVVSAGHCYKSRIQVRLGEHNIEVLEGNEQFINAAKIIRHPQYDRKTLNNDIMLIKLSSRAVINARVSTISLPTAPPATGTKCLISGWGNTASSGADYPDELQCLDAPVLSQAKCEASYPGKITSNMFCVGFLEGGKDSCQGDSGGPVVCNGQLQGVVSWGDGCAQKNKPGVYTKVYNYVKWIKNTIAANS

With `N=C(N)c1cccc(-c2cc(CC(=O)O)cc(-c3cc4cc(C(=N)N)ccc4[nH]3)c2O)c1`, the Selectivity at Prothrombin [1] stood at 140; on Coagulation factor X [2] it was 4; at Plasminogen [4] it was 3; in [5] it was 0.6; on Serine protease 1 [6], 2. The molecule also yielded a Ki in experiment [3] of 430 nM.

As to `N=C(N)c1ccc2[nH]c(-c3cc(CC(=O)O)cc(-c4cccc(C(=O)O)c4)c3O)cc2c1`, the Selectivity on Prothrombin [1] was determined as 375; at Coagulation factor X [2], 0.5; at Plasminogen [4], 5; in experiment [5] it was 6; on Serine protease 1 [6], 1. The molecule also returned a Ki in experiment [3] of 320 nM.

In the case of `N=C(N)c1ccc2[nH]c(-c3cc(C(=O)O)cc(-c4cccc([N+](=O)[O-])c4)c3O)cc2c1`, the Selectivity at Prothrombin [1] amounted to 420; on Coagulation factor X [2], 42; at Plasminogen [4], 75; in experiment [5] it was 44; at Serine protease 1 [6], 70. This molecule also displayed a Ki in [3] of 5 nM. In addition, in experiment [7], the “2x PT” value was 4.1 µM.

With `N=C(N)c1ccc2[nH]c(-c3cc(CC(=O)O)cc(-c4cccc(-c5nn[nH]n5)c4)c3O)cc2c1`, the Selectivity on Prothrombin [1] came to 100; on Coagulation factor X [2], 0.5; at Plasminogen [4], 2; in [5] it was 2; at Serine protease 1 [6], 3.

Take `N=C(N)c1ccc2[nH]c(-c3cc(CCC(=O)O)cc(-c4cccc([N+](=O)[O-])c4)c3O)cc2c1`: the Selectivity was 59 at Prothrombin [1]; 2 on Coagulation factor X [2]; 6 at Plasminogen [4]; 6 in [5]; 37 at Serine protease 1 [6]. Besides, in experiment [3], the Ki came out at 27 nM. The “2x PT” value in [7] turned out to be 2.2 µM.

Turning to `N=C(N)c1ccc2[nH]c(-c3cc(CC(=O)O)cc(-c4cccc(N)c4)c3O)cc2c1`, the Selectivity at Prothrombin [1] was 550; at Coagulation factor X [2], 26; at Plasminogen [4], 27; in experiment [5], 6; on Serine protease 1 [6] it was 83. In experiment [3], this molecule returned a Ki of 12 nM.

`N=C(N)c1ccc2nc(-c3cc(Cl)cc(-c4cccc(N)c4)c3O)[nH]c2c1`: the Ki was 4.2 nM at Prothrombin [8]; 0.5 nM on Coagulation factor X [9]; 78 nM in experiment [3]; 3200 nM on Plasminogen [10]; 0.46 nM in experiment [11]; 4700 nM at Serine protease 1 [12].

Consider `N=C(N)c1ccc2[nH]c(-c3cc(-c4nn[nH]n4)cc(-c4cccc([N+](=O)[O-])c4)c3O)cc2c1`, for which, in the experiment listed under Homo sapiens [13], the “2x PT” value turned out to be 16 µM. Moreover, the Selectivity on Plasminogen [4] amounted to 20; at Prothrombin [14], 140; in experiment [5] it was 15; at Serine protease 1 [6], 40; on Coagulation factor X [15], 0.5.

`N=C(N)c1ccc2[nH]c(-c3cc(CC(=O)O)cc(-c4cccc(-c5nnn[nH]5)c4)c3O)cc2c1` gave a Ki in [3] of 480 nM.

For `N=C(N)c1ccc2[nH]c(-c3cc(CC(=O)O)cc(-c4ccccc4)c3O)cc2c1`, the Selectivity amounted to 49 on Prothrombin [1]; 4 at Coagulation factor X [2]; 6 on Plasminogen [4]; 1 in experiment [5]; 1 on Serine protease 1 [6]. In addition, the inhibition constant Ki in experiment [3] was 41 nM.

As for `N=C(N)c1ccc2[nH]c(-c3cc(CC(=O)O)cc(-c4cccc([N+](=O)[O-])c4)c3O)cc2c1`, the Selectivity was 960 on Prothrombin [1]; 20 on Coagulation factor X [2]; 90 at Plasminogen [4]; 64 in experiment [5]; 160 at Serine protease 1 [6]. Further, the affinity in experiment [3] corresponds to a Ki of 3 nM. In addition, in [7], the “2x PT” value came out at 1.7 µM.

As to `N=C(N)c1ccc2[nH]c(-c3cc(CC(=O)O)cc(-c4cccc(OP(=O)(O)O)c4)c3O)cc2c1`, the Selectivity amounted to 87 at Prothrombin [1], 1 on Coagulation factor X [2], 4 at Plasminogen [4] and 4 in experiment [5]. This molecule also had a Ki in [3] of 950 nM. Besides, the Selectivity entry at Serine protease 1 [6] was “inactive”.

`N=C(N)c1ccc2[nH]c(-c3cc(-c4nnn[nH]4)cc(-c4cccc([N+](=O)[O-])c4)c3O)cc2c1` gave a Ki on Coagulation factor VII of 50 nM.

With `N=C(N)c1ccc2[nH]c(-c3cc(CC(=O)O)cc(-c4cccc(Cl)c4)c3O)cc2c1`, the Selectivity at Prothrombin [1] is 112; on Coagulation factor X [2], 5; at Plasminogen [4] it was 17; in experiment [5], 4; at Serine protease 1 [6], 3. Besides, the inhibition constant (Ki) in experiment [3] was found to be 33 nM.

As to `N=C(N)c1ccc2[nH]c(-c3cc(CCOP(=O)(O)O)cc(-c4cccc([N+](=O)[O-])c4)c3O)cc2c1`, the Selectivity on Prothrombin [1] is 870; on Coagulation factor X [2], 5; at Plasminogen [4], 33; in [5], 21; on Serine protease 1 [6], 63. The Ki in experiment [3] worked out at 3 nM. In addition, the “2x PT” value in the experiment filed under Homo sapiens [16] is “inactive”.

`N=C(N)c1ccc2[nH]c(-c3cc(CC(N)C(=O)O)cc(-c4cccc([N+](=O)[O-])c4)c3O)cc2c1` (stereo not given) showed a Ki at Coagulation factor VII of 50 nM. The “2x PT” value in the experiment filed under Homo sapiens [13] was determined as 0.73 µM. The Selectivity stood at 3 at Plasminogen [4]; 40 on Prothrombin [14]; 1 in experiment [5]; 5 at Serine protease 1 [6]; 0.5 at Coagulation factor X [15].

Values taken from ChEMBL document CHEMBL1133926, “Optimization of a screening lead for factor VIIa/TF” (Bioorg Med Chem Lett, 2001).
